Assay results as given in patent US11072616B2, “Cyclic peptides targeting alpha-4-beta-7 integrin” (Zealand Pharma A/S, priority 2015, dated 2021).

Biological target: T1, integrin α4β7 (Homo sapiens, UniProt P13612+P26010)
T1 sequence (P13612 34-977 limits assumed): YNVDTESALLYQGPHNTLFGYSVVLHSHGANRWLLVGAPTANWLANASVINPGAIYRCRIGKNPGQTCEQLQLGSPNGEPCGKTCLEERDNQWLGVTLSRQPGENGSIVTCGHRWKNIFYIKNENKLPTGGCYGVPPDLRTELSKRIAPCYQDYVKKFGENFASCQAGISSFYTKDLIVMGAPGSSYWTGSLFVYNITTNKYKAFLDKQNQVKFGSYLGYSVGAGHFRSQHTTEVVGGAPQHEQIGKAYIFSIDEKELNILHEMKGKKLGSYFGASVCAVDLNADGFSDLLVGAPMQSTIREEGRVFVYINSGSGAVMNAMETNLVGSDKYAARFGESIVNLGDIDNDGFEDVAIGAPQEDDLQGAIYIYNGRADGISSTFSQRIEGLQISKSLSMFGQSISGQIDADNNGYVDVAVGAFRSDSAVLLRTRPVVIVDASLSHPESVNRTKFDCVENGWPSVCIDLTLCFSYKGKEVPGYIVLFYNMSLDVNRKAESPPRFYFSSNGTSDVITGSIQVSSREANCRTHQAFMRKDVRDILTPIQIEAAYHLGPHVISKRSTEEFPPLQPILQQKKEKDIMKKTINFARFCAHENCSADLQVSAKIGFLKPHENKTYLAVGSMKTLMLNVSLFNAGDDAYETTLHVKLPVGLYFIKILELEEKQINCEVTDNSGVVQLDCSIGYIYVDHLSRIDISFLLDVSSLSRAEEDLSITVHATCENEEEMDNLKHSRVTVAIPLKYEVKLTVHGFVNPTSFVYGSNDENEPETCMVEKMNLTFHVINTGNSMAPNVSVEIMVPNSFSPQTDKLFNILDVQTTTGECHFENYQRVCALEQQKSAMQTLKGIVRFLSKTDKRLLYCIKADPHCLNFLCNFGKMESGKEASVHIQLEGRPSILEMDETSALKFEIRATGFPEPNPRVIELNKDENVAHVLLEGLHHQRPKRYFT
T1 sequence (P26010 20-723 limits assumed): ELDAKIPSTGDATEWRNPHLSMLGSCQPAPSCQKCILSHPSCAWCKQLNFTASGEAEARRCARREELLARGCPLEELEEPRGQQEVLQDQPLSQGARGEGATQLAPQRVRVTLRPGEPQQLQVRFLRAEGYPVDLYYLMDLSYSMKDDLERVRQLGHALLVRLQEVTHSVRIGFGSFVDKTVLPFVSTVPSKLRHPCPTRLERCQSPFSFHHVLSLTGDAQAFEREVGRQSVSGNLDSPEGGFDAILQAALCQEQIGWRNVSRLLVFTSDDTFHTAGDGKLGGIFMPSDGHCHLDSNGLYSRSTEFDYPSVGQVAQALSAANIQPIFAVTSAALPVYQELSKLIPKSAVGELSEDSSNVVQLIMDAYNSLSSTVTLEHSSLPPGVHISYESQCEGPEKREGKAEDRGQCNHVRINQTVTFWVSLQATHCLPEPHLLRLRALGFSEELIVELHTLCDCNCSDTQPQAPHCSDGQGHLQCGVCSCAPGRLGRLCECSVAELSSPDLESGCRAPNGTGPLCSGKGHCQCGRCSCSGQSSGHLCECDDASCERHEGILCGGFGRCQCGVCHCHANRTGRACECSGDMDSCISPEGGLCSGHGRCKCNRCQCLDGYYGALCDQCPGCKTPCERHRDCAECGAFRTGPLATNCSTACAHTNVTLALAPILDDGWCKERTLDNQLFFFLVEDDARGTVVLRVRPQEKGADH
Assay: Integrin α4β7—MAdCAM-1 competition assay (ELISA)
Format: binding
Conditions: not given
Experimental: Integrin α4β7—MAdCAM-1 Competition Assay
The plate was incubated at 4° C. overnight. […] The plate was then incubated for 1 hour at room temperature. The plate was washed three times with wash buffer (50 mM Tris, 100 mM NaCl, 1 mM MnCl2, 0.05% Tween). To each well, 50 μl of compound diluted in assay buffer was added by transfer from a compound serial dilution plate. […] The plate was incubated at room temperature with shaking for 2 hours to reach binding equilibrium. Then the plate was washed three times in wash buffer and 100 μl anti-human IgG Fc specific-horseradish peroxidase (HRP) (Abcam, Ab97225) diluted at 1:2000 in assay buffer was added to each well. The plate was incubated at room temperature for 1 hour under agitation. The plates were then washed three times and 100 μl of 1,3′,5,5′-tetramethylbenxidie (TMB) was then added to each well.

SMILES | Selectivity ELISA
CC(C)C[C@@H]1NC(=O)c2ccc(-c3ccc(N4CCN(C(=O)COCC(=O)N5CCN(c6ccc(-c7ccc8cc7CNC(=O)[C@@H]7CCCN7[C@H](C(=O)NC(C)(C)C)[C@H](C)NC(=O)[C@H]([C@@H](C)O)NC(=O)[C@H](CC(=O)O)NC(=O)[C@H](CC(C)C)NC8=O)cc6)CC5)CC4)cc3)c(c2)CNC(=O)[C@@H]2CCCN2[C@H](C(=O)NC(C)(C)C)[C@H](C)NC(=O)[C@H]([C@@H](C)O)NC(=O)[C@H](CC(=O)O)NC1=O [Compound 390] | 1.749

Same assay, conditions: ratio a4b1 ELISA IC50 / a4b7 ELISA IC50

SMILES | Selectivity ELISA
C=CCOc1ccc(C[C@@H]2NC(=O)[C@@H]3CCCN3[C@H](C(=O)NC(C)(C)C)[C@H](C)NC(=O)[C@H]([C@@H](C)O)NC(=O)[C@H](CC(=O)O)NC(=O)[C@H](CC(C)C)NC(=O)[C@@H](CO)NC2=O)cc1 [Compound 167] | 13.6
CC(C)C[C@@H]1NC(=O)[C@H]2C[C@H](O)CN2C(=O)[C@H](Cc2ccc(O)cc2)NC(=O)[C@@H]2CCCN2[C@H](C(=O)NC(C)(C)C)[C@H](C)NC(=O)[C@H]([C@@H](C)O)NC(=O)[C@H](CC(=O)O)NC1=O [Compound 140] | 9.6
CC(C)C[C@@H]1NC(=O)C[C@H](CCCCN)NC[C@H](Cc2ccc(CN)cc2)NC(=O)[C@@H]2CCCN2[C@H](C(=O)NC(C)(C)C)[C@H](C)NC(=O)[C@H]([C@@H](C)O)NC(=O)[C@H](CC(=O)O)NC1=O [Compound 218] | 16.5
CC(C)C[C@@H]1NC(=O)[C@H]2CCCN2C(=O)[C@H](Cc2cc(Br)c(O)c(Br)c2)NC(=O)[C@@H]2CCCN2[C@H](C(=O)NC(C)(C)C)[C@H](C)NC(=O)[C@H]([C@@H](C)O)NC(=O)[C@H](CC(=O)O)NC1=O [Compound 129] | 9.7
CC(C)C[C@@H]1NC(=O)C[C@H](CCCCN)NC(=O)[C@H](Cc2ccc(CN)cc2)NC(=O)[C@@H]2CCCN2[C@H](C(=O)NC(C)(C)C)[C@H](C)NC(=O)[C@H](C(C)C)NC(=O)[C@H](CC(=O)O)NC1=O [Compound 254] | 33.0
CC(C)C[C@@H]1NC(=O)[C@H](Cc2csc(-c3ccccn3)n2)NC(=O)[C@@H]2CCCN2[C@H](C(=O)NC(C)(C)C)[C@H](C)NC(=O)[C@H]([C@@H](C)O)NC(=O)[C@H](CC(=O)O)NC1=O [Compound 95] | 2.4
CC(C)C[C@@H]1NC(=O)[C@H]2c3ccccc3CCN2C(=O)[C@@H]2CCCN2[C@H](C(=O)NC(C)(C)C)[C@H](C)NC(=O)[C@H]([C@@H](C)O)NC(=O)[C@H](CC(=O)O)NC1=O [Compound 98] | 2.7
CC(C)C[C@@H]1NC(=O)CN(C)C(=O)[C@H](Cc2cccc3ccccc23)NC(=O)[C@@H]2CCCN2[C@H](C(=O)NC(C)(C)C)[C@H](C)NC(=O)[C@H]([C@@H](C)O)NC(=O)[C@H](CC(=O)O)NC1=O [Compound 117] | 8.7
CC(C)C[C@@H]1NC(=O)C2(CCCC2)NC(=O)[C@H](Cc2ccc(O)cc2)NC(=O)[C@@H]2CCCN2[C@H](C(=O)NC(C)(C)C)[C@H](C)NC(=O)[C@H]([C@@H](C)O)NC(=O)[C@H](CC(=O)O)NC1=O [Compound 104] | 4.2
C=CCOc1ccc(C[C@@H]2NC(=O)[C@@H]3CCCN3[C@H](C(=O)NC(C)(C)C)[C@H](C)NC(=O)[C@H]([C@@H](C)O)NC(=O)[C@H](CC(=O)O)NC(=O)[C@H](CC(C)C)NC(=O)CNC2=O)cc1 [Compound 163] | 11.0
CC(C)C[C@@H]1NC(=O)[C@@H]2C[C@@H](O)CN2C(=O)[C@H](Cc2ccc(O)cc2)NC(=O)[C@@H]2CCCN2[C@H](C(=O)NC(C)(C)C)[C@H](C)NC(=O)[C@H]([C@@H](C)O)NC(=O)[C@H](CC(=O)O)NC1=O [Compound 139] | 0.7
CC(C)C[C@@H]1NC(=O)[C@H]2CCCCN2C(=O)[C@H](Cc2ccc(-c3ccccc3)cc2)NC(=O)[C@@H]2CCCN2[C@H](C(=O)NC(C)(C)C)[C@H](C)NC(=O)[C@H]([C@@H](C)O)NC(=O)[C@H](CC(=O)O)NC1=O [Compound 138] | 5.0
CC[C@H](C)[C@@H]1NC(=O)[C@H](CC(=O)O)NC(=O)[C@H](CC(C)C)NC(=O)C[C@H](CCCCN)NC(=O)[C@@H](Cc2ccc(CN)cc2)NC(=O)[C@@H]2CCCN2[C@H](C(=O)NC(C)(C)C)[C@H](C)NC1=O [Compound 253] | 15.6
CC(C)C[C@@H]1NC(=O)[C@H](Cc2ccc3ccccc3c2)NC(=O)[C@@H]2CCCN2[C@H](C(=O)NC(C)(C)C)[C@H](C)NC(=O)[C@H]([C@@H](C)O)NC(=O)[C@H](CC(=O)O)NC1=O [Compound 10] | 1.3
CC(C)C[C@@H]1NC(=O)[C@H]2CCCCN2C(=O)[C@H](Cc2ccccc2-c2ccccc2)NC(=O)[C@@H]2CCCN2[C@H](C(=O)NC(C)(C)C)[C@H](C)NC(=O)[C@H]([C@@H](C)O)NC(=O)[C@H](CC(=O)O)NC1=O [Compound 134] | 7.6
CC(C)C[C@@H]1NC(=O)C[C@H](CCCCN)NC(=O)[C@](C)(Cc2ccccc2)NC(=O)[C@@H]2CCCN2[C@H](C(=O)NC(C)(C)C)[C@H](C)NC(=O)[C@H]([C@@H](C)O)NC(=O)[C@H](CC(=O)O)NC1=O [Compound 263] | 23.1
CC(C)C[C@@H]1NC(=O)[C@@H](CCCNC(=N)N)N(C)C(=O)[C@H](Cc2ccc(O)cc2)NC(=O)[C@@H]2CCCN2[C@H](C(=O)NC(C)(C)C)[C@H](C)NC(=O)[C@H]([C@@H](C)O)NC(=O)[C@H](CC(=O)O)NC1=O [Compound 157] | 55.3
CC(C)C[C@@H]1NC(=O)[C@H](Cc2cccnc2)NC(=O)[C@@H]2C[C@@H](O)CN2[C@H](C(=O)NC(C)(C)C)[C@H](C)NC(=O)[C@H]([C@@H](C)O)NC(=O)[C@H](CC(=O)O)NC1=O [Compound 44] | 2.3
CC(C)C[C@@H]1NC(=O)[C@H](Cc2cccc3ccccc23)NC(=O)[C@@H]2CCCN2[C@H](C(=O)NC(C)(C)C)[C@H](C)NC(=O)[C@H]([C@@H](C)O)NC(=O)[C@H](CC(=O)O)NC1=O [Compound 9] | 1.7
CC[C@H](C)[C@@H]1NC(=O)[C@H](CC(=O)O)NC(=O)[C@H](CC(C)C)NC(=O)[C@@H](CCCCN)N(C)C(=O)[C@H](Cc2ccc(O)cc2)NC(=O)[C@@H]2CCCN2[C@H](C(=O)NC(C)(C)C)[C@H](C)NC1=O [Compound 154] | 22.8
CC(C)C[C@@H]1NC(=O)c2ccc(-c3cccc(CN)c3)c(c2)CNC(=O)[C@@H]2CCCN2[C@H](C(=O)NC(C)(C)C)[C@H](C)NC(=O)[C@H]([C@@H](C)O)NC(=O)[C@H](CC(=O)O)NC1=O [Compound 382] | 2.0
CC(C)C[C@@H]1NC(=O)[C@H](Cc2csc(-c3ccncc3)n2)NC(=O)[C@@H]2CCCN2[C@H](C(=O)NC(C)(C)C)[C@H](C)NC(=O)[C@H]([C@@H](C)O)NC(=O)[C@H](CC(=O)O)NC1=O [Compound 97] | 2.5
CC(C)C[C@@H]1NC(=O)C[C@H](CCCCN)NC(=O)[C@H](Cc2ccc(O)cc2)NC(=O)[C@@H]2CCCN2[C@H](C(=O)NC(C)(C)C)[C@H](C)NC(=O)[C@H]([C@@H](C)OCc2ccccc2)NC(=O)[C@H](CC(=O)O)NC1=O [Compound 200] | 2.6
CC(C)C[C@@H]1NC(=O)c2ccc(-c3cccc4ncccc34)c(c2)CNC(=O)[C@@H]2CCCN2[C@H](C(=O)NC(C)(C)C)[C@H](C)NC(=O)[C@H]([C@@H](C)O)NC(=O)[C@H](CC(=O)O)NC1=O [Compound 347] | 1.3
